Experimental data as given in patent publication US8410166B2, “Fused bicyclic compound” (Mitsubishi Tanabe Pharma Corporation, priority 2007, dated 2013).

Target: T1, mineralocorticoid receptor (MR) (Rattus norvegicus, UniProt P22199)
T1 construct: the homogenate was centrifuged at 100,000×g for 1 hour to give a supernatant as a kidney cytosol fraction; from tissue; host or cells: kidney cytosol fraction of adrenalectomised male Sprague-Dawley rats
T1 sequence (P22199 1-981): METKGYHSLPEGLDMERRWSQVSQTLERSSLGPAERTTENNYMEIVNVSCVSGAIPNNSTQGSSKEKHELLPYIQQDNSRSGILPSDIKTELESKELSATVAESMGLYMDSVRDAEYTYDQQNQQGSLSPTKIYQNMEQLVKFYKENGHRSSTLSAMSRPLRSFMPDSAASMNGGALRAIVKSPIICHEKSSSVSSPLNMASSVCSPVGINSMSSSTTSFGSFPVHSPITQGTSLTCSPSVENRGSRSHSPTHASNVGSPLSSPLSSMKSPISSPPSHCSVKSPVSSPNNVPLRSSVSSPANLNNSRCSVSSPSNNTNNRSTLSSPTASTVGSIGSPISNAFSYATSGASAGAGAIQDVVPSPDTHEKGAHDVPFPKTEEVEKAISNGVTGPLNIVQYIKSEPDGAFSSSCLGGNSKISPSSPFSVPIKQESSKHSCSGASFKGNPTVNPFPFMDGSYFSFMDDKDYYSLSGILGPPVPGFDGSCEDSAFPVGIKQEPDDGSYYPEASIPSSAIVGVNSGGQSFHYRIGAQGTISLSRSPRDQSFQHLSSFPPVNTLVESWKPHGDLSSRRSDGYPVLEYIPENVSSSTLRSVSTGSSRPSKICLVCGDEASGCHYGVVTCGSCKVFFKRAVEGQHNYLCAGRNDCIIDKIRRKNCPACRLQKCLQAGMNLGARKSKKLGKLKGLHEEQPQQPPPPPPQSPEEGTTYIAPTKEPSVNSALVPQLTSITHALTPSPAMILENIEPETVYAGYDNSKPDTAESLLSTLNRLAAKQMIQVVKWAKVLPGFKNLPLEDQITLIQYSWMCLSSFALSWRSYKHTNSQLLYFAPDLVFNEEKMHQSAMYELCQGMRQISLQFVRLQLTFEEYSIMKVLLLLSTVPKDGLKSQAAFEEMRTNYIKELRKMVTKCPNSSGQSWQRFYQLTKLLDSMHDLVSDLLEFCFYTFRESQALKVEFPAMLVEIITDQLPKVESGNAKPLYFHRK
Assay: Aldosterone receptor binding assay (rat kidney cytosol, [3H]aldosterone)
Settings: MR derived from rat kidney, 3H-aldosterone; read-out: Ki values in 3H-aldosterone binding to MR
Method: The compound of the present invention has a high affinity to a mineralocorticoid receptor (MR) of mammals. For example, in a biding assay using a rat MR and ^3H-aldosterone, which was conducted according to a method disclosed in The Journal of Pharmacology and Experimental Therapeutics, 1987; 240: p. […] Accordingly, the compound [I] is useful for treating and/or preventing the diseases associated with MR, e.g., circulatory system disease including hypertension and heart failure etc.
[Aldosterone Receptor Binding Assay]
(1) Preparation of Kidney Cytosol Fraction:
Kidneys derived from post-adrenalectomy Sprague-Dawley male rats (7 weeks old) were homogenized in the following buffer solution and the homogenate was centrifuged at 100,000×g for 1 hour to give a supernatant as a kidney cytosol fraction (protein concentration: 15 mg/mL) for the present biding assay.
Composition of Buffer Solution:
50 mM Tris-HCl (pH 7.5), 250 mM Sucrose, 50 mM Potassium chloride, 3 mM Magnesium chloride, 20 mM Sodium molybdate and 1 mM Mercaptoethanol
A mixture of 5 μL of a solution of each test compound in dimethylsulfoxide, 200 μL of kidney cytosol fraction, 50 μL of physiological saline (or 50 μL of unlabeled aldosterone solution (final concentration: 1 μM) and 50 μL of [^3H] aldosterone solution (ca. 2 nM) was incubated in a test tube at 4° C. overnight. Thereto was added 100 μL of dextrane-coated charcoal/10 mM Tris-HCl buffer and the mixture was incubated at 4° C. for 30 minutes. The reaction mixture was centrifuged at 3000 rpm for 10 minutes and to the supernatant (150 μL) was added 5 mL of a scintillater (Clearsol I, Nakarai Tesque). The radioactivity was measured by a liquid scintilation counter (TRI CARB 2200C A, Packard). The concentration of each test compound required to produce 50% inhibition of aldosterone-binding to receptors (IC50; μM) was calculated on the basis of the above quantitated radioactivity. Moreover, the dissociation constant (Ki) of each test compound was calculated on Cheng and Prusoff s equation (Ki=IC50/(1+[L]/Kd), wherein [L] is [^3H]aldosterone concentration and Kd is the affinity constant of aldosterone).

Row | Structure (SMILES) | Ki [nM]
1 | CC1(C)N=C(c2ccc(F)cc2)c2c(F)cc(N)cc2O1 [5-fluoro-4-(4-fluorophenyl)-2,2-dimethyl-2H-1,3-benzoxazin-7-amine] | < 10000
2 | CC1(C)N=C(c2ccc(Cl)cc2)c2ccc(NS(C)(=O)=O)cc2O1 [Example 1, N-[4-(4-chlorophenyl)-2.2-dimethyl-2H-1,3-benzoxazin-7-yl]methanesulfonamide] | < 10000

Other lines, results leading:

Row | Ki [nM] | Structure (SMILES)
3 | < 10000 | CC1(C)Oc2cc(N)ccc2C(c2ccc(F)cc2)=C1C#N [7-amino-4-(4-fluorophenyl)-2,2-dimethyl-2H-chromen-3-carbonitrile]
4 | < 10000 | CC1=C(c2ccc(F)cc2)c2ccc(NS(C)(=O)=O)cc2OC1(C)C [Example 6, N-[4-(4-fluorophenyl)-2,2,3-trimethyl-2H-chromen-7-yl]methanesulfonamide]

Same assay, conditions: [3H]aldosterone binding to MR of rat kidney cytosol fraction; Ki by Cheng-Prusoff; read-out: Ki

Row | Structure (SMILES) | Ki [nM]
5 | Cc1cc(Cl)ccc1C1=CC(C)(C)Oc2cc(NS(C)(=O)=O)ccc21 [Example 42] | < 500
6 | CC1(C)N=C(c2csc3ccccc23)c2ccc(NS(C)(=O)=O)cc2O1 [Example 26] | < 500
7 | CS(=O)(=O)Nc1ccc2c(c1)OC1(CCCC1)C(C#N)=C2c1ccc(F)cc1 [Example 55(2) compound (a), N-[3-cyano-4-(4-fluorophenyl)spiro[chromen-2′,1′-cyclopentan]-7-yl]methanesulfonamide] | < 500
8 | CC1(C)N=C(c2ccccc2)c2ccc(NS(C)(=O)=O)cc2O1 [Example 10] | 500 to 1000
9 | CC1(C)N=C(c2ccc(Cl)cc2)c2ccc(NS(C)(=O)=O)cc2O1 [Example 1, N-[4-(4-chlorophenyl)-2.2-dimethyl-2H-1,3-benzoxazin-7-yl]methanesulfonamide] | < 500

Further lines, results first:

Row | Ki [nM] | Structure (SMILES)
10 | 500 to 1000 | CNS(=O)(=O)c1ccc2c(c1)OC(C)(C)N=C2c1ccc(F)cc1 [Example 61, N,2,2-trimethyl-4-(4-fluorophenyl)-2H-1,3-benzoxazin-7-sulfonamide]
11 | < 500 | CC1=C(c2ccc(F)cc2)c2ccc(NS(C)(=O)=O)cc2OC1(C)C [Example 6, N-[4-(4-fluorophenyl)-2,2,3-trimethyl-2H-chromen-7-yl]methanesulfonamide]
12 | < 500 | CC1(C)Oc2cc(NS(C)(=O)=O)ccc2C(c2ccc(Cl)c(F)c2)=C1C#N [Example 53]
13 | < 500 | Cc1cc(NS(C)(=O)=O)cc2c1C(c1ccc(F)cc1)=NC(C)(C)O2 [Example 47]
14 | < 500 | CC1(C)CC(c2ccc(F)cc2)c2ccc(NS(C)(=O)=O)cc2O1 (centres unmarked) [Example 8, N-[4-(4-fluorophenyl)-2,2-dimethyl-3,4-dihydro-2H-chromen-7-yl]methanesulfonamide]
